Measured values taken from ChEMBL document CHEMBL5120870, “Calysepins I-VII, Hexasaccharide Resin Glycosides from Calystegia sepium and Their Cytotoxic Evaluation” (J Nat Prod, 2022).

System: A549
Test: Cytotoxicity against human A549 cells incubated for 24 hrs by CCK8 assay
Assay type: functional, cell-based
Details: A549, 24 h

CCCCC[C@@H]1CCCCCCCCCC(=O)O[C@H]2[C@H](OC[C@H]3O[C@@H](O[C@H]4[C@H](O)[C@@H](CO)O[C@@H](O[C@H]5[C@H](O1)O[C@H](C)[C@@H](O)[C@@H]5O)[C@@H]4O[C@@H]1O[C@@H](C)[C@H](OC(=O)[C@@H](C)CC)[C@@H](O[C@@H]4O[C@H](CO)[C@@H](OC(=O)[C@@H](C)CC)[C@H](O)[C@H]4O)[C@H]1OC(=O)[C@@H](C)CC)[C@H](O)[C@@H](O)[C@@H]3OC(=O)[C@@H](C)[C@H](C)O)O[C@H](CO)[C@@H](OC(=O)[C@@H](C)CC)[C@@H]2O
IC50: 5.2 µM
